# Tests used:
# Format in all cases: cell-based
# [1] = system: Saccharomyces cerevisiae; experiment: MIC/MFC broth microdilution (CLSI); conditions: Saccharomyces cerevisiae S288c
# Procedure: (§1) Antifungal susceptibility was determined by broth microdilution according to the CLSI guidelines described in M27-Ed4 ([16]). […] MFC was determined by back-plating drug-treated cultures from MIC broths onto SDA plates. The MFC was defined as the lowest concentration from which no colonies could be cultured.
# [2] = system: Candida albicans; experiment: MIC/MFC broth microdilution (CLSI); conditions: Candida albicans SC5314
# Procedure: as §1
# [3] = system: Cryptococcus deuterogattii; experiment: checkerboard drug interaction (FICI, MICc);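 for all read-outs here: simplified diagonal checkerboard screen pairing antifungal drugs with FPPS inhibitors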; conditions: C. deuterogattii; for INH FD (MIC-MICc fold decrease): fold decrease of inhibitor MIC
# Procedure: (§2) Drug interactions between antifungals and FPPS inhibitors were investigated using a simplified checkerboard diagonal screening method ([45]). […] FICIs were determined according to the Loewe additivity model ([17]).
# [4] = system: Cryptococcus neoformans; experiment: checkerboard drug interaction (FICI, MICc);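 for all read-outs here: antifungal plus FPPS inhibitor pairs tested against Cryptococcus neoformans by simplified diagonal checkerboard screening, FICI computed under the Loewe additivity model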; conditions: C. neoformans; for INH FD (MIC-MICc fold decrease): fold decrease of inhibitor MIC
# Procedure: as §2
# [5] = system: Saccharomyces cerevisiae; experiment: checkerboard drug interaction (FICI, MICc); design: INH MICc / INH MICc (ITR:INH) / INH MICc (KET:INH) / INH MICc (FLC:INH): unit not given beside the values;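 note: simplified diagonal checkerboard screen pairing antifungals with FPPS inhibitors, FICI calculated under the Loewe additivity model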
# [6] = system: Candida glabrata; experiment: checkerboard drug interaction (FICI, MICc);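 for all read-outs here: simplified diagonal checkerboard screen pairing antifungals with FPPS inhibitors, FICI calculated under the Loewe additivity model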; conditions: C. glabrata; for INH FD (MIC-MICc fold decrease): fold decrease of inhibitor MIC
# Procedure: as §2
# [7] = system: Candida albicans; experiment: checkerboard drug interaction (FICI, MICc);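 note: antifungal plus FPPS inhibitor combinations on Candida albicans tested by a simplified diagonal checkerboard screen, with FICI calculated under the Loewe additivity model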; conditions: C. albicans
# Procedure: as §2
# [8] = FLC:INH combination, MIC of the inhibitor in combination with FLC
# [9] = FLC:INH combination, fold decrease of FLC MIC
# [10] = ITR:INH combination, MIC of the inhibitor in combination with ITR
# [11] = ITR:INH combination, fold decrease of ITR MIC
# [12] = KET:INH combination, MIC of the inhibitor in combination with KET
# [13] = KET:INH combination, fold decrease of KET MIC
structure (smiles),measurement,setting,value
CCCCCCCCCN1CCC[C@H]1C(=O)N[C@H](CC(=O)OC)C(=O)OC [dmPDA9],MFC,[1],128 µg/mL
same,MIC,[1],64 µg/mL
same,MFC,[2],> 128 µg/mL
same,MIC,[2],128 µg/mL
same,FICI,[3]; FLC:INH combination,3
same,INH MICc,[3]; [8],128
same,FLC FD (MIC-MICc fold decrease),[3]; [9],-2
same,INH FD (MIC-MICc fold decrease),[3]; FLC:INH combination,1
same,FICI,[3]; ITR:INH combination,1.25
same,INH MICc,[3]; [10],32
same,ITR FD (MIC-MICc fold decrease),[3]; [11],1
same,INH FD (MIC-MICc fold decrease),[3]; ITR:INH combination,4
same,FICI,[3]; KET:INH combination,1.5
same,INH MICc,[3]; [12],128
same,KET FD (MIC-MICc fold decrease),[3]; [13],2
same,INH FD (MIC-MICc fold decrease),[3]; KET:INH combination,1
same,FICI,[4]; FLC:INH combination,1.25
same,INH MICc,[4]; [8],32
same,FLC FD (MIC-MICc fold decrease),[4]; [9],1
same,INH FD (MIC-MICc fold decrease),[4]; FLC:INH combination,4
same,FICI,[4]; ITR:INH combination,≥4
same,INH MICc,[4]; [10],128
same,ITR FD (MIC-MICc fold decrease),[4]; [11],-4
same,INH FD (MIC-MICc fold decrease),[4]; ITR:INH combination,1
same,FICI,[4]; KET:INH combination,≥4
same,INH MICc,[4]; [12],128
same,KET FD (MIC-MICc fold decrease),[4]; [13],-4
same,INH FD (MIC-MICc fold decrease),[4]; KET:INH combination,1
same,FICI (FLC:INH),"[5]; Fractional Inhibitory Concentration Index, fluconazole + inhibitor",1.5
same,FICI (ITR:INH),"[5]; Fractional Inhibitory Concentration Index, itraconazole + inhibitor",3
same,FICI (KET:INH),"[5]; Fractional Inhibitory Concentration Index, ketoconazole + inhibitor",2.5
same,INH MICc (FLC:INH),[5]; MIC of the inhibitor in combination with fluconazole,64
same,INH MICc (ITR:INH),[5]; MIC of the inhibitor in combination with itraconazole,64
same,INH MICc (KET:INH),[5]; MIC of the inhibitor in combination with ketoconazole,128
same,FLC FD (FLC:INH),"[5]; MIC-MICc fold decrease of fluconazole, negative = increase",2
same,ITR FD (ITR:INH),"[5]; MIC-MICc fold decrease of itraconazole, negative = increase",-2
same,KET FD (KET:INH),"[5]; MIC-MICc fold decrease of ketoconazole, negative = increase",2
same,INH FD (FLC:INH),"[5]; MIC-MICc fold decrease of the inhibitor, with fluconazole",1
same,INH FD (ITR:INH),"[5]; MIC-MICc fold decrease of the inhibitor, with itraconazole",1
same,INH FD (KET:INH),"[5]; MIC-MICc fold decrease of the inhibitor, with ketoconazole",-2
same,FICI,[6]; FLC:INH combination,2.5
same,INH MICc,[6]; [8],32
same,FLC FD (MIC-MICc fold decrease),[6]; [9],-2
same,INH FD (MIC-MICc fold decrease),[6]; FLC:INH combination,4
same,FICI,[6]; ITR:INH combination,1.13
same,INH MICc,[6]; [10],8
same,ITR FD (MIC-MICc fold decrease),[6]; [11],1
same,INH FD (MIC-MICc fold decrease),[6]; ITR:INH combination,16
same,FICI,[6]; KET:INH combination,1.13
same,INH MICc,[6]; [12],8
same,KET FD (MIC-MICc fold decrease),[6]; [13],1
same,INH FD (MIC-MICc fold decrease),[6]; KET:INH combination,16
same,FICI,[7]; FLC:INH combination,≥4
same,INH MICc,[7]; [8],64
same,FLC FD (MIC-MICc fold decrease),[7]; [9],< -4
same,INH FD (MIC-MICc fold decrease),"[7]; FLC:INH combination, fold decrease of inhibitor MIC",2
same,FICI,[7]; ITR:INH combination,≥4
same,INH MICc,[7]; [10],64
same,ITR FD (MIC-MICc fold decrease),[7]; [11],< -4

# — paper PMC12892976, “Alkylation-based optimization of antifungal FPPS inhibitors yields a potent, broad-spectrum lipophilic zoledronate derivative” (mBio, 2025)
